Results taken from patent EP1510220B1 (priority 1993, dated 1994).

Legend:
[1] = tested on: Vascular smooth muscle cells (BO54); assay: Scratch-migration assay with morphological toxicity grading; assay type: cell-based, baboon; design: key to Migration Grade in the Cleared Area of the Well / Migration Grade in an Undisturbed Region of the Well: - = no migration; +1 = minimal; +2 = mild; +3 = moderate; +4 = marked (maximum density; limit of cell contact inhibition) migration
Experimental: Scratch assays to determine the extent of smooth muscle cell migration inhibition by cytochalasin B were performed in accordance with the following protocol:
Vascular smooth muscle cells (BO54) were derived from explants of baboon aortic smooth muscle, as described in Example 1. The cells were grown in flat bottom, six well tissue culture plates, which hold about 5 ml of medium. The vascular smooth muscle cells were plated at 200,000 cells/well and placed at 37°C in a humidified 5% CO2 incubator for 18 hours. The wells were then scratched with a sterile portion of a single edge razor blade that was held by clamp or pliers and was brought aseptically into contact with the bottom of the well at a 90° angle. The cells from a small area along the scratch were removed by a sterile cotton tipped applicator while the blade was in contact with the bottom of the well. After incubation, the presence of cells in the "scratched" area is indicative of cell migration across the scratch line.
Briefly, a stock solution of cytochalasin B (Sigma Chemical Co.) in dimethyl sulfoxide (DMSO) at 1 mg/ml was prepared. Test dilutions of cytochalasin B or control medium were added. Each experiment included two sets of plates: • A set: Test agent exposure for 1, 3, 6, 8 and 10 days only; and • B set: Test agent exposure for 1, 3, 6, 8 and 10 days, followed by a seven day recovery time with control medium. Both sets of plates were fixed (10% formalin in PBS) and stained (0.02% crystal violet) at the end of the timed exposures. Test concentrations for cytochalasin B were 1, 0.1 and 0.01 µg/ml, and a negative medium control was included. Fresh medium and drug were supplied 3 times per week.
In this Table, "M" indicates Migration Grade, wherein - = no migration; +1 = minimal; +2 = mild; +3 = moderate; and +4 = marked (maximum density; limit of cell contact inhibition) migration of vascular smooth muscle cells into the cleared area adjacent to the scratch. In this Table, "T" denotes a morphological Toxicity Grade, wherein - = no toxicity; +1 = minimal; +2 = mild; +3 = moderate; and +4 = marked toxicity. The migration results are expressed as "Grade in the Cleared Area of the Well / Grade in an Undisturbed Region of the Well." The toxicity values represent a grade for all cells in each well.

TGF-beta1 mRNA [2] = conditions: vascular smooth muscle cells, 24 h, 10 µM
TGF-beta = TGF-beta activity in medium conditioned on rat vascular smooth muscle cells (MvLu cell assay); assay type: cell-based; conditions: cells treated for 96 hours in 10% FCS
Experimental: (§1) Assays for TGF-Beta. The TGF-beta activity present in medium conditioned on various cells was determined by DNA synthesis assay on mink lung […] (MvLu) cells; a modification of the assay described in Danielpour et al., J. Cell. Physiol., 138: 79-83, 1989. MvLu cells were subcultured at 1:5 dilution in DMEM + 10% FCS. After 24 hours, the medium was replaced with the conditioned medium to be tested in the absence or presence of the neutralizing antiserum to TGF-beta at 10 micrograms/ml. DNA synthesis during a 1 hour pulse of [^3H]-thymidine (5 microcuries/ml) was determined 23 hours after addition of the test medium. TGF-beta activity was calculated as the proportion of the inhibition of DNA synthesis which was reversed in the presence of neutralizing antibody, using a standard curve to convert the inhibition values into quantities of TGF-beta. The TGF-beta1 standards and conditioned media both contained 10% FCS in DMEM.

[3] = tested on: mink lung endothelial (MvLu) cells; assay: DNA synthesis of MvLu cells, direct addition of agent; assay type: cell-based; conditions: 50 micromolar in fresh DMEM + 10% FCS
Experimental: as §1

TGF-beta1 mRNA [4] = assay: cells; conditions: Rattus norvegicus, 24 h, read-out: increase of TGF-beta1 mRNA
[5] = 7-day Recovery Post Exposure, 0.01 µg/mL, Day 1
[6] = 7-day Recovery Post Exposure, 0.01 µg/mL, Day 3
[7] = 7-day Recovery Post Exposure, 0.01 µg/mL, Day 6
[8] = 7-day Recovery Post Exposure, 0.01 µg/mL, Day 8
[9] = 7-day Recovery Post Exposure, 0.01 µg/mL, Day 10
[10] = 7-day Recovery Post Exposure, 0.1 µg/mL, Day 1
[11] = 7-day Recovery Post Exposure, 0.1 µg/mL, Day 3
[12] = 7-day Recovery Post Exposure, 0.1 µg/mL, Day 6
[13] = 7-day Recovery Post Exposure, 0.1 µg/mL, Day 8
[14] = 7-day Recovery Post Exposure, 0.1 µg/mL, Day 10
[15] = 7-day Recovery Post Exposure, 1.0 µg/mL, Day 1
[16] = 7-day Recovery Post Exposure, 1.0 µg/mL, Day 3
[17] = 7-day Recovery Post Exposure, 1.0 µg/mL, Day 6
[18] = 7-day Recovery Post Exposure, 1.0 µg/mL, Day 8
[19] = 7-day Recovery Post Exposure, 1.0 µg/mL, Day 10
[20] = Continuous Exposure, 0.01 µg/mL, Day 1
[21] = Continuous Exposure, 0.01 µg/mL, Day 3
[22] = Continuous Exposure, 0.01 µg/mL, Day 6
[23] = Continuous Exposure, 0.01 µg/mL, Day 8
[24] = Continuous Exposure, 0.01 µg/mL, Day 10
[25] = Continuous Exposure, 0.1 µg/mL, Day 1
[26] = Continuous Exposure, 0.1 µg/mL, Day 3
[27] = Continuous Exposure, 0.1 µg/mL, Day 6
[28] = Continuous Exposure, 0.1 µg/mL, Day 8
[29] = Continuous Exposure, 0.1 µg/mL, Day 10
[30] = Continuous Exposure, 1.0 µg/mL, Day 1
[31] = Continuous Exposure, 1.0 µg/mL, Day 3
[32] = Continuous Exposure, 1.0 µg/mL, Day 6
[33] = Continuous Exposure, 1.0 µg/mL, Day 8
[34] = Continuous Exposure, 1.0 µg/mL, Day 10

With cytochalasin B the “ability to migrate following removal of the therapeutic agent (grade)” value ([1]; 0.1 µg/ml, even after 10 days of continuous exposure) was “+3 to +4”, the “migration of vascular smooth muscle cells into the cleared area adjacent to the scratch (grade)” value ([1]; 0.1 µg/ml, summary of Table 1) was “+1 to +2” and the “Migration Grade in an Undisturbed Region of the Well” value [1, 5] was “+4”. For the same molecule, the “Migration Grade in the Cleared Area of the Well” value [1, 5] was “+3”, the “Migration Grade in an Undisturbed Region of the Well” value [1, 6] was “+4” and the “Migration Grade in the Cleared Area of the Well” value [1, 6] was “+3”. The “Migration Grade in an Undisturbed Region of the Well” value [1, 7] was “+4/+4”, the “Migration Grade in the Cleared Area of the Well” value [1, 7] was “+4/+4” and the “Migration Grade in an Undisturbed Region of the Well” value [1, 8] was “+4/+4”. For the same molecule, the “Migration Grade in the Cleared Area of the Well” value [1, 8] was “+4/+4”, the “Migration Grade in an Undisturbed Region of the Well” value [1, 9] was “+4/+4” and the “Migration Grade in the Cleared Area of the Well” value [1, 9] was “+4/+4”. For the same molecule, the “Migration Grade in an Undisturbed Region of the Well” value [1, 10] was “+4”, the “Migration Grade in the Cleared Area of the Well” value [1, 10] was “+3” and the “Migration Grade in an Undisturbed Region of the Well” value [1, 11] was “+4”. The “Migration Grade in the Cleared Area of the Well” value [1, 11] was “+3”, the “Migration Grade in an Undisturbed Region of the Well” value [1, 12] was “+4” and the “Migration Grade in the Cleared Area of the Well” value [1, 12] was “+3”. For the same molecule, the “Migration Grade in an Undisturbed Region of the Well” value [1, 13] was “+4”, the “Migration Grade in the Cleared Area of the Well” value [1, 13] was “+3” and the “Migration Grade in an Undisturbed Region of the Well” value [1, 14] was “+4/+4”. The “Migration Grade in the Cleared Area of the Well” value [1, 14] was “+4/+4”, the “Migration Grade in an Undisturbed Region of the Well” value [1, 15] was “+3” and the “Migration Grade in the Cleared Area of the Well” value [1, 15] was “+2”. The “Migration Grade in an Undisturbed Region of the Well” value [1, 16] was “+3”, the “Migration Grade in the Cleared Area of the Well” value [1, 16] was “+2” and the “Migration Grade in an Undisturbed Region of the Well” value [1, 17] was “+3”. For the same molecule, the “Migration Grade in the Cleared Area of the Well” value [1, 17] was “+2”, the “Migration Grade in an Undisturbed Region of the Well” value [1, 18] was “+3” and the “Migration Grade in the Cleared Area of the Well” value [1, 18] was “+2”. The “Migration Grade in an Undisturbed Region of the Well” value [1, 19] was “+3”, the “Migration Grade in the Cleared Area of the Well” value [1, 19] was “+2” and the “Migration Grade in an Undisturbed Region of the Well” value [1, 20] was “+3”. For the same molecule, the “Migration Grade in the Cleared Area of the Well” value [1, 20] was “+1”, the “Migration Grade in an Undisturbed Region of the Well” value [1, 21] was “+4” and the “Migration Grade in the Cleared Area of the Well” value [1, 21] was “+3”. For the same molecule, the “Migration Grade in an Undisturbed Region of the Well” value [1, 22] was “+4”, the “Migration Grade in the Cleared Area of the Well” value [1, 22] was “+3” and the “Migration Grade in an Undisturbed Region of the Well” value [1, 23] was “+4”. The “Migration Grade in the Cleared Area of the Well” value [1, 23] was “+3”, the “Migration Grade in an Undisturbed Region of the Well” value [1, 24] was “+4” and the “Migration Grade in the Cleared Area of the Well” value [1, 24] was “+3”. For the same molecule, the “Migration Grade in an Undisturbed Region of the Well” value [1, 25] was “+3”, the “Migration Grade in the Cleared Area of the Well” value [1, 25] was “+1” and the “Migration Grade in an Undisturbed Region of the Well” value [1, 26] was “+4”. The “Migration Grade in the Cleared Area of the Well” value [1, 26] was “+1”, the “Migration Grade in an Undisturbed Region of the Well” value [1, 27] was “+4” and the “Migration Grade in the Cleared Area of the Well” value [1, 27] was “+2”. The “Migration Grade in an Undisturbed Region of the Well” value [1, 28] was “+4”, the “Migration Grade in the Cleared Area of the Well” value [1, 28] was “+2” and the “Migration Grade in an Undisturbed Region of the Well” value [1, 29] was “+4”. For the same molecule, the “Migration Grade in the Cleared Area of the Well” value [1, 29] was “+2”, the “Migration Grade in an Undisturbed Region of the Well” value [1, 30] was “+2” and the “Migration Grade in the Cleared Area of the Well” value [1, 30] was “-”. The “Migration Grade in an Undisturbed Region of the Well” value [1, 31] was “+2”, the “Migration Grade in the Cleared Area of the Well” value [1, 31] was “-” and the “Migration Grade in an Undisturbed Region of the Well” value [1, 32] was “+2”. The “Migration Grade in the Cleared Area of the Well” value [1, 32] was “-”, the “Migration Grade in an Undisturbed Region of the Well” value [1, 33] was “+2” and the “Migration Grade in the Cleared Area of the Well” value [1, 33] was “-”. The “Migration Grade in an Undisturbed Region of the Well” value [1, 34] was “+2” and the “Migration Grade in the Cleared Area of the Well” value [1, 34] was “-”.
For `CC/C(=C(\c1ccccc1)c1ccc(OCCN(C)C)cc1)c1ccccc1` [tamoxifen, trans-2-[4-(1,2-diphenyl-1-butenyl)phenoxy]-N,N-dimethylethylamine], the “increase of TGF-beta1 mRNA” value (TGF-beta1 mRNA [2]) was “approximately 10 fold”, the “increase of TGF-beta activity in the medium” value (TGF-beta) was greater than 50 fold and the “effect on DNA synthesis of MvLu cells” value [3] was “no effect on DNA synthesis”. It also gave a fold induction at 10 µM (TGF-beta1 mRNA [4]) of roughly 10.
